Reference: patent publication US8309558B2, “Compounds for the treatment of hepatitis C” (Bristol-Myers Squibb Company, priority 2008, dated 2012)
Like-named read-outs stand apart in the source and are kept apart here.

Legend:
HCV replicon cells = assay: HCV replicon FRET / luciferase assay (96-well plates); assay type: cell-based; settings: Hepatitis C virus
Excerpt: FRET Assay Preparation. To perform the HCV FRET screening assay, 96-well cell culture plates were used. The FRET peptide (Anaspec, Inc.) (Taliani et al., Anal. Biochem. 1996, 240, 60-67) contains a fluorescence donor, EDANS, near one end of the peptide and an acceptor, DABCYL, near the other end. The fluorescence of the peptide is quenched by […] resonance energy transfer (RET) between the donor and the acceptor, but as the NS3 protease cleaves the peptide the products are released from RET quenching and the fluorescence of the donor becomes apparent. The assay reagent was made as follows: 5× cell Luciferase cell culture lysis reagent from Promega (#E153A) diluted to 1× with dH2O, NaCl added to 150 mM final, the FRET peptide diluted to 20 μM final from a 2 mM stock.
To prepare plates, HCV replicon cells, with or without a Renilla luciferase reporter gene, were trypsinized and placed into each well of a 96-well plate with titrated test compounds added in columns 3 through 12; columns 1 and 2 contained a control compound (HCV protease inhibitor), and the bottom row contained cells without compound. The plates were then placed in a CO2 incubator at 37° C.
Assays. Subsequent to addition of the test compounds described above (FRET Assay Preparation), at various times the plate was removed and Alamar blue solution (Trek Diagnostics, #00-100) was added per well as a measure of cellular toxicity. After reading in a Cytoflour 4000 instrument (PE Biosystems), plates were rinsed with PBS and then used for FRET assay by the addition of 30 ul of the FRET peptide assay reagent described above (FRET Assay Preparation) per well. The plate was then placed into the Cytoflour 4000 instrument which had been set to 340 excite/490 emission, automatic mode for 20 cycles and the plate read in a kinetic mode. Typically, the signal to noise using an endpoint analysis after the reads was at least three-fold. Alternatively, after Alamar blue reading, plates were rinsed with PBS, 50 ul of DMEM (high glucose) without phenol red was added and plates were then used for luciferase assay using the Promega Dual-Glo Luciferase Assay System.
Compound analysis was determined by quantification of the relative HCV replicon inhibition and the relative cytotoxicity values. To calculate cytoxicity values, the average Alamar Blue fluorescence signals from the control wells were set as 100% non-toxic. The individual signals in each of the compound test wells were then divided by the average control signal and multiplied by 100% to determine […]. To calculate the HCV replicon inhibition values, an average background value was obtained from the two wells containing the highest amount of HCV protease inhibitor at the end of the assay period. These numbers were similar to those obtained from naïve Huh-7 cells.
The background numbers were then subtracted from the average signal obtained from the control wells and this number was used as 100% activity. The individual signals in each of the compound test wells were then divided by the averaged control values after background subtraction and multiplied by 100% to determine percent activity. EC50 values for a protease inhibitor titration were calculated as the concentration which caused a 50% reduction in FRET or luciferase activity. The two numbers generated for the compound plate, percent cytoxicity and percent activity were used to determine compounds of interest for further analysis.

[1] = molecular target: T1, HCV NS5B RdRp genotype 1b (Hepatitis C virus genotype 1b, UniProt Q9WMX2); assay: Standard HCV NS5B RdRp enzyme assay; assay type: biochemical
T1 construct: The protein was expressed with an 18 amino acid C-terminal truncation to enhance the solubility; made in house; host or cells: E. coli BL21(DE3), pET21a vector
Description: HCV NS5B RdRp cloning, expression, and purification. The cDNA encoding the NS5B protein of HCV, genotype 1b, was cloned into the pET21a expression vector. The protein was expressed with an 18 amino acid C-terminal truncation to enhance the solubility. The E. coli competent cell line BL21(DE3) was used for expression of the protein. Cultures were grown at 37° C. for ˜4 hours until the cultures reached an optical density of 2.0 at 600 nm. The cultures were cooled to 20° C. and induced with 1 mM IPTG. Fresh ampicillin was added to a final concentration of 50 μg/ml and the cells were grown overnight at 20° C.
Cell pellets (3 L) were lysed for purification to yield 15-24 mgs of purified NS5B. The lysis buffer consisted of 20 mM Tris-HCl, pH 7.4, 500 mM NaCl, 0.5% triton X-100, 1 mM DTT, 1 mM EDTA, 20% glycerol, 0.5 mg/ml lysozyme, 10 mM MgCl2, 15 ug/ml deoxyribonuclease I, and Complete TM protease inhibitor tablets (Roche). After addition of the lysis buffer, frozen cell pellets were resuspended using a tissue homogenizer. To reduce the viscosity of the sample, aliquots of the lysate were sonicated on ice using a microtip attached to a Branson sonicator. The sonicated lysate was centrifuged at 100,000×g for 1 hr at 4° C. and filtered through a 0.2 μm filter unit (Corning).
The protein was purified using three sequential chromatography steps: Heparin sepharose CL-6B, polyU sepharose 4B, and Hitrap SP sepharose (Pharmacia). The chromatography buffers were identical to the lysis buffer but contained no lysozyme, deoxyribonuclease I, MgC12 or protease inhibitor and the NaCl concentration of the buffer was adjusted according to the requirements for charging the protein onto the column. Each column was eluted with a NaCl gradient which varied in length from 5-50 column volumes depending on the column type. After the final chromatography step, the resulting purity of the enzyme is >90% based on SDS-PAGE analysis. The enzyme was aliquoted and stored at −80° C.
Standard HCV NS5B RdRp enzyme assay. HCV RdRp genotype 1b assays were run in a final volume of 60 μl in 96 well plates (Costar 3912). The assay buffer composed of 20 mM Hepes, pH 7.5, 2.5 mM KCl, 2.5 mM MgCl2, 1 mM DTT, 1.6 U RNAse inhibitor (Promega N2515), 0.1 mg/ml BSA (Promega R3961), and 2% glycerol. All compounds were serially diluted (3-fold) in DMSO and diluted further in water such that the final concentration of DMSO in the assay was 2%. HCV RdRp genotype 1b enzyme was used at a final concentration of 28 nM. A polyA template was used at 6 nM, and a biotinylated oligo-dT12 primer was used at 180 nM final concentration. Template was obtained commercially (Amersham 27-4110). Biotinylated primer was prepared by Sigma Genosys. 3H-UTP was used at 0.6 μCi (0.29 μM total UTP). Reactions were initiated by the addition of enzyme, incubated at 30° C. for 60 min, and stopped by adding 25 μl of 50 mM EDTA containing SPA beads (4 μg/μl, Amersham RPNQ 0007). Plates were read on a Packard Top Count NXT after >1 hr incubation at room temperature.
IC50 values for compounds were determined using seven different [I]. IC50 values were calculated from the inhibition using the formula y=A+((B−A)/(1+((C/x)^D))).

[2] = Table 1a, HCV replicon, read-out: EC50
[3] = Table 1a, HCV NS5B RdRp genotype 1b, read-out: IC50
[4] = Table 1b, HCV NS5B RdRp genotype 1b, read-out: IC50

T1 sequence (Q9WMX2 2420-2992): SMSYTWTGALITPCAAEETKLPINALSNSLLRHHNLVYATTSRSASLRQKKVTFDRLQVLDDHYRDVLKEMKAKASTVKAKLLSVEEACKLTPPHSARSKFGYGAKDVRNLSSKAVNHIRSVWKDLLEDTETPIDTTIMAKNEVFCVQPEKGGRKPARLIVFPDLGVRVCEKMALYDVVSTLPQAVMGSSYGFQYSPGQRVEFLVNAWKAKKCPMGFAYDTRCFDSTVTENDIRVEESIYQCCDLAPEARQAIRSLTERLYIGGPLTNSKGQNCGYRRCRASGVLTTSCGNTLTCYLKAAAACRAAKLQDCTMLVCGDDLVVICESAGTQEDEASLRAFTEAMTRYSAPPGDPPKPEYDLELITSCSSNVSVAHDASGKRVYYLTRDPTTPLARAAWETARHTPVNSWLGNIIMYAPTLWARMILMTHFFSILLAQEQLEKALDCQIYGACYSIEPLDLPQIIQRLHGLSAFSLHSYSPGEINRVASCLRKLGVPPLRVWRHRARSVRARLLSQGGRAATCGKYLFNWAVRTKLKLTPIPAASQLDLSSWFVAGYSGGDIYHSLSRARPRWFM

IC50 [1, 4] | SMILES | EC50 (HCV replicon cells; [2]) | IC50 [1, 3] | other results
 | CNC(=O)c1c(-c2ccc(F)cc2)oc2ccc(-c3cccc(C(=O)NCC(C)C)c3)cc12 | < 0.25 µM | < 0.25 µM | 
 | CCCNC(=O)c1cccc(-c2ccc3oc(-c4ccc(F)cc4)c(C(=O)NC)c3c2)c1 | < 0.25 µM | < 0.25 µM | 
 | CNC(=O)c1c(-c2ccc(F)cc2)oc2ccc(-c3cccc(C(=O)NC(C)(C)C(=O)OC)c3)cc12 | < 0.25 µM | < 0.25 µM | 
 | CNC(=O)c1c(-c2ccc(F)cc2)oc2ccc(-c3cccc(C(=O)N[C@H]4C[C@@H]4c4ccccc4)c3)cc12 | < 0.25 µM | > 0.4 µM | 
 | CNC(=O)c1c(-c2ccc(F)cc2)oc2ccc(-c3cccc(C(=O)N[C@@H](C)c4cccc(OC)c4)c3)cc12 | < 0.25 µM | < 0.25 µM | 
 | CNC(=O)c1c(-c2ccc(F)cc2)oc2ccc(-c3cc(C(=O)NCC(C)C)ccc3O)cc12 | < 0.25 µM | < 0.25 µM | 
 | C#CC(C)(C)NC(=O)c1cccc(-c2ccc3oc(-c4ccc(F)cc4)c(C(=O)NC)c3c2)c1 | < 0.25 µM | < 0.25 µM | 
 | CNC(=O)c1c(-c2ccc(F)cc2)oc2ccc(-c3cccc(C(=O)NC(C)(C)CO)c3)cc12 | < 0.25 µM | < 0.25 µM | 
 | CNC(=O)c1c(-c2ccc(F)cc2)oc2ccc(-c3cccc(C(=O)NC(C)(C)C(F)(F)F)c3)cc12 | < 0.25 µM | < 0.25 µM | 
 | CNC(=O)c1c(-c2ccc(F)cc2)oc2ccc(-c3cccc(C(=O)NC(C)(C)CC(C)(C)C)c3)cc12 | < 0.25 µM | 0.25 to 1 µM | 
 | CCC(C)(C)NC(=O)c1cccc(-c2ccc3oc(-c4ccc(F)cc4)c(C(=O)NC)c3c2)c1 | < 0.25 µM | < 0.25 µM | 
 | CNC(=O)c1c(-c2ccc(F)cc2)oc2ccc(-c3cccc(C(=O)NC4(c5ccc(F)cc5)CC4)c3)cc12 | < 0.25 µM | < 0.25 µM | 
 | CNC(=O)c1c(-c2ccc(F)cc2)oc2ccc(-c3cccc(C(=O)NC4(c5ccccn5)CC4)c3)cc12 | < 0.25 µM | < 0.25 µM | 
 | CNC(=O)c1c(-c2ccc(F)cc2)oc2ccc(-c3cccc(C(=O)NC(C)(C)Cc4ccc(F)cc4)c3)cc12 | < 0.25 µM | 0.25 to 1 µM | 
 | CNC(=O)c1c(-c2ccc(F)cc2)oc2ccc(-c3cccc(C(=O)NC(C)(C)c4ccc(OC)cc4)c3)cc12 | < 0.25 µM | < 0.25 µM | 
 | CNC(=O)c1c(-c2ccc(F)cc2)oc2ccc(-c3ccc(-c4ccccc4)c(C(=O)NC(C)(C)c4ccccc4)c3)cc12 | < 0.25 µM | < 0.25 µM | 
 | CNC(=O)c1c(-c2ccc(F)cc2)oc2cc([N+](=O)[O-])c(-c3cccc(C(=O)NC(C)(C)c4ccccc4)c3)cc12 | < 0.25 µM | < 0.25 µM | 
 | CNC(=O)c1c(-c2ccc(F)cc2)oc2ccc(-c3cccc(C(=O)NC(C)(C)c4ccccc4)c3)c([N+](=O)[O-])c12 | < 0.25 µM | < 0.25 µM | 
 | CNC(=O)c1c(-c2ccc(F)cc2)oc2cc([N+](=O)[O-])c(-c3cccc(C(=O)NC4(c5ccccc5)CC4)c3)cc12 | < 0.25 µM | < 0.25 µM | 

IC50 [1, 4] | SMILES | EC50 (HCV replicon cells; [2]) | IC50 [1, 3] | other results
 | CNC(=O)c1c(-c2ccc(F)cc2)oc2ccc(-c3cccc(C(=O)NC(C)(C)c4ccccc4)c3)c(N)c12 | < 0.25 µM | < 0.25 µM | 
 | CNC(=O)c1c(-c2ccc(F)cc2)oc2cc(NS(C)(=O)=O)c(-c3cccc(C(=O)NC(C)(C)c4ccccc4)c3)cc12 | < 0.25 µM | < 0.25 µM | 
 | CNC(=O)c1c(-c2ccc(F)cc2)oc2ccc(-c3cccc(C(=O)N4C5CCC4CN(C)C5)c3)cc12 |  |  | EC50 (HCV replicon cells): 1 to 10 µM; IC50 [1]: 1 to 10 µM
 | CNC(=O)c1c(-c2ccc(F)cc2)oc2ccc(-c3cccc(C(=O)NC4CN5CCC4CC5)c3)cc12 (stereo not drawn) |  |  | EC50 (HCV replicon cells): 1 to 10 µM; IC50 [1]: 1 to 10 µM
< 0.25 µM | CCOC(=O)c1[nH]c(-c2cccc(-c3ccc4oc(-c5ccc(F)cc5)c(C(=O)NC)c4c3)c2)nc1C |  |  | 
1 to 10 µM | CNC(=O)c1c(-c2ccc(F)cc2)oc2cc(NS(C)(=O)=O)c(/C=C/C(=O)NC(C)(C)c3ccccc3)cc12 |  |  | 
< 0.25 µM | CNC(=O)c1c(-c2ccc(F)cc2)oc2cc(N(CCO)S(C)(=O)=O)c(/C=C/C(=O)NC(C)(C)c3ccccc3)cc12 |  |  | 
< 0.25 µM | CNC(=O)c1c(-c2ccc(F)cc2)oc2ccc(-c3ccc(-c4ccnc(C)c4)c(C(=O)NCC(C)C)c3)cc12 |  |  | 
< 0.25 µM | CNC(=O)c1c(-c2ccc(F)cc2)oc2ccc(-c3ccc(-c4cccc(N)c4)c(C(=O)NCC(C)C)c3)cc12 |  |  | 
< 0.25 µM | CNC(=O)c1c(-c2ccc(F)cc2)oc2ccc(-c3ccc(-c4cncnc4)c(C(=O)NCC(C)C)c3)cc12 |  |  | 
< 0.25 µM | CNC(=O)c1c(-c2ccc(F)cc2)oc2ccc(-c3ccc(-c4c[nH]c(=O)[nH]c4=O)c(C(=O)NCC(C)C)c3)cc12 |  |  | 
0.25 to 1 µM | CNC(=O)c1c(-c2ccc(F)cc2)oc2ccc(-c3ccc(-c4cncc(OC)c4)c(C(=O)NCC(C)C)c3)cc12 |  |  | 
< 0.25 µM | CNC(=O)c1c(-c2ccc(F)cc2)oc2ccc(-c3ccc(-c4cnc(N)nc4)c(C(=O)NCC(C)C)c3)cc12 |  |  | 
0.25 to 1 µM | CNC(=O)c1c(-c2ccc(F)cc2)oc2ccc(-c3ccc(-c4cncc(C)c4)c(C(=O)NCC(C)C)c3)cc12 |  |  | 
< 0.25 µM | CNC(=O)c1c(-c2ccc(F)cc2)oc2ccc(-c3ccc(-c4ccsc4)c(C(=O)NCC(C)C)c3)cc12 |  |  | 
0.25 to 1 µM | CNC(=O)c1c(-c2ccc(F)cc2)oc2ccc(-c3cc(C(=O)NC4(C(=O)OC)CC4)c(O)cc3Cl)cc12 |  |  | 
0.25 to 1 µM | CNC(=O)c1c(-c2ccc(F)cc2)oc2ccc(-c3cc(C(=O)NC4(C(=O)O)CC4)c(O)cc3Cl)cc12 |  |  | 
 | CNC(=O)c1c(-c2ccc(F)cc2)oc2ccc(-c3cc(C(=O)NC4(c5cccc(C)n5)CC4)c(OC)cc3C)cc12 |  |  | IC50 ([1]; Table 1d (class symbols), HCV NS5B RdRp genotype 1b, read-out: IC50): 0.001 to 0.25 µM
